Measurements reported in ChEMBL document CHEMBL4665907, “Breakthrough in Degradation of BCR-ABL Fusion Protein for the Treatment of Cancer” (ACS Med Chem Lett, 2020).

Assays:
[1] = biological target: T1, von Hippel-Lindau disease tumor suppressor/Tyrosine-protein kinase ABL1/Breakpoint cluster region protein (Homo sapiens, UniProt P00519+P11274+P40337); experiment: Protac binding affinity at VHL/BCR-ABL (unknown origin) assessed as binding to phosphorylated c-ABL kinase domain by Kinomescan assay; assay type: protein assay
[2] = biological target: T1, von Hippel-Lindau disease tumor suppressor/Tyrosine-protein kinase ABL1/Breakpoint cluster region protein; experiment: Protac binding affinity at VHL/BCR-ABL (unknown origin) assessed as binding to non phosphorylated c-ABL kinase domain by Kinomescan assay; assay type: protein assay
[3] = biological target: T2, Protein cereblon/Tyrosine-protein kinase ABL1/Breakpoint cluster region protein (Homo sapiens, UniProt P00519+P11274+Q96SW2); experiment: Protac binding affinity at CRBN/BCR-ABL (unknown origin) assessed as binding to non phosphorylated c-ABL kinase domain by Kinomescan assay; assay type: protein assay
Target sequence in this assay (P00519 whole entry, the tested form may be a part): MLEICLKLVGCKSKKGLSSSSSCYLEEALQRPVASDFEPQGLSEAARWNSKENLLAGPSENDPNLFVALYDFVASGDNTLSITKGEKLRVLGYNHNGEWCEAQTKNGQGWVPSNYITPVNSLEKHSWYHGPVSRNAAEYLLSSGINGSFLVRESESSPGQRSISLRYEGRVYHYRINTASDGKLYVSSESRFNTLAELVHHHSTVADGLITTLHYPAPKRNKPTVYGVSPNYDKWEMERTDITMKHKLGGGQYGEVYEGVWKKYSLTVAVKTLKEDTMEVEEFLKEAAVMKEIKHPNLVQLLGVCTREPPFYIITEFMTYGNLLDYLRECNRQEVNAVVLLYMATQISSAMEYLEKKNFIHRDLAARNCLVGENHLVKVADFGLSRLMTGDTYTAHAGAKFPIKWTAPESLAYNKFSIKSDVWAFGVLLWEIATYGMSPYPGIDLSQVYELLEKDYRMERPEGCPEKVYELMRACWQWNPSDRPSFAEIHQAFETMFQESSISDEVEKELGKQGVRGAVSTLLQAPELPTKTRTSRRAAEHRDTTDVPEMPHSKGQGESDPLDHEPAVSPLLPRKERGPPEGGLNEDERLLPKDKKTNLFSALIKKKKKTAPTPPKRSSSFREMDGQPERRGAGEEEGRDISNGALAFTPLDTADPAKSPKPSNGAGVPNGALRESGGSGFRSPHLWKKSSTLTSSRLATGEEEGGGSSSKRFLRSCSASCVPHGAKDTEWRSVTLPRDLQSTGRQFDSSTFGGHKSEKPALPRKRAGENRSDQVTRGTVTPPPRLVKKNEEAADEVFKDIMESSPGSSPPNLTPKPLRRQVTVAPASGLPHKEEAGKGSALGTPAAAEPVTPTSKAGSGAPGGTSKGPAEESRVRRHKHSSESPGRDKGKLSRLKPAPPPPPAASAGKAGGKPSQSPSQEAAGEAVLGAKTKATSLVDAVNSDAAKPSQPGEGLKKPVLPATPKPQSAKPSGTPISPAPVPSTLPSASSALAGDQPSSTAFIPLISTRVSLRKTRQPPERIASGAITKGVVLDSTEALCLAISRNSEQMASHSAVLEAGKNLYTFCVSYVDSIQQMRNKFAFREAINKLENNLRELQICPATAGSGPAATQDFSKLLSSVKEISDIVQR
Target sequence in this assay (P11274 whole entry, the tested form may be a part): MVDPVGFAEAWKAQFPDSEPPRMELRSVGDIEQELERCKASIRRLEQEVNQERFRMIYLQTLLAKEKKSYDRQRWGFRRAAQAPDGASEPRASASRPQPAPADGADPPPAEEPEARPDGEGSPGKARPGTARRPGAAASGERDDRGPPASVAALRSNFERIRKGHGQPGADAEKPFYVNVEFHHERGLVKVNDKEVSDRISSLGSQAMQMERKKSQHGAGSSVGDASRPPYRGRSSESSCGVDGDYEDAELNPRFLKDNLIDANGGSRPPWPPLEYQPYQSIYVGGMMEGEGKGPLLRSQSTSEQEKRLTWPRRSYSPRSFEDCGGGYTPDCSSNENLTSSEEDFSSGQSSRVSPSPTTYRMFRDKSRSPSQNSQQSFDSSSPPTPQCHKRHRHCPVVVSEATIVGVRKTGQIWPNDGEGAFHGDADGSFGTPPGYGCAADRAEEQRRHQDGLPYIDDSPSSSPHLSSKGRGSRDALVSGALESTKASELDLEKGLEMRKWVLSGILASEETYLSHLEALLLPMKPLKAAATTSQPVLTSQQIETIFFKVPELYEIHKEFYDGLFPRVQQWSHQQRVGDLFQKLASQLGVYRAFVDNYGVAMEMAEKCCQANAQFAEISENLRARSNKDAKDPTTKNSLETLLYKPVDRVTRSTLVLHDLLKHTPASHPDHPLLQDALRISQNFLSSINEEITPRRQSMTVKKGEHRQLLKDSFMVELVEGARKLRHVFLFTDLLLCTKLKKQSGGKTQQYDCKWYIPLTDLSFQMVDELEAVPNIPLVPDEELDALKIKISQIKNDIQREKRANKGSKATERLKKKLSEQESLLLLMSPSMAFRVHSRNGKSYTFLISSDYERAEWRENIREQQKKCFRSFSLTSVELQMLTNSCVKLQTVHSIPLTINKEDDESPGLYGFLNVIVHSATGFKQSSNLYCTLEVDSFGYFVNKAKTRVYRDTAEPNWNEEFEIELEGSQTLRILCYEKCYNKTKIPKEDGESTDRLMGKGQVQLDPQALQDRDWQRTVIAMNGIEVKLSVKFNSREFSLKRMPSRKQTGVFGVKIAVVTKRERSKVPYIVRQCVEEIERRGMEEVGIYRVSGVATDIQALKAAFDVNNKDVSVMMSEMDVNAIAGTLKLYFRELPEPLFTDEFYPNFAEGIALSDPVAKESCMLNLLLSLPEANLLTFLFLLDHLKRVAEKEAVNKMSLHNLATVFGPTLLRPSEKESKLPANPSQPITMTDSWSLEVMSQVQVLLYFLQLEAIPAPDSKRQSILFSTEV
Target sequence in this assay (Q96SW2 whole entry, the tested form may be a part): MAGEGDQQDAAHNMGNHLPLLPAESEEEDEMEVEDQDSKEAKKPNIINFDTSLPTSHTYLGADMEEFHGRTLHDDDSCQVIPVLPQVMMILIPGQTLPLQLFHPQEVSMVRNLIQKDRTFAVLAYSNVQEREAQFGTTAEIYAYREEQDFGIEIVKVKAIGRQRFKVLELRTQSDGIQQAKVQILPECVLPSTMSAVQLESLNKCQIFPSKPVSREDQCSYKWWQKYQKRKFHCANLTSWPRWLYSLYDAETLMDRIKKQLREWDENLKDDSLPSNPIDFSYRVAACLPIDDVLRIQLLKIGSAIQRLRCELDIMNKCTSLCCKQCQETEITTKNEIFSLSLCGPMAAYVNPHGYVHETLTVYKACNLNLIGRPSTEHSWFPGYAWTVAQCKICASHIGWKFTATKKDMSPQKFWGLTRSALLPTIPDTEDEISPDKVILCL

[4] = biological target: T2, Protein cereblon/Tyrosine-protein kinase ABL1/Breakpoint cluster region protein; experiment: Protac activity at CRBN/BCR-ABL in human K562 cells assessed as induction of BCR-ABL degradation at 2.5 uM incubated for 24 hrs by western blot analysis relative to control; assay type: cell-based
Target sequence in this assay (P00519 whole entry, looked up, the tested form may be a part): as the sequence (P00519 whole entry, the tested form may be a part) above
Target sequence in this assay (P11274 whole entry, looked up, the tested form may be a part): as the sequence (P11274 whole entry, the tested form may be a part) above
Target sequence in this assay (Q96SW2 whole entry, looked up, the tested form may be a part): as the sequence (Q96SW2 whole entry, the tested form may be a part) above

[5] = biological target: T2, Protein cereblon/Tyrosine-protein kinase ABL1/Breakpoint cluster region protein; experiment: Protac binding affinity at CRBN/BCR-ABL (unknown origin) assessed as binding to phosphorylated c-ABL kinase domain by Kinomescan assay; assay type: protein assay
Target sequence in this assay (P00519 whole entry, the tested form may be a part): as the sequence (P00519 whole entry, the tested form may be a part) above
Target sequence in this assay (P11274 whole entry, the tested form may be a part): as the sequence (P11274 whole entry, the tested form may be a part) above
Target sequence in this assay (Q96SW2 whole entry, the tested form may be a part): as the sequence (Q96SW2 whole entry, the tested form may be a part) above

[6] = biological target: T2, Protein cereblon/Tyrosine-protein kinase ABL1/Breakpoint cluster region protein; experiment: Protac activity at CRBN/BCR-ABL in human K562 cells assessed as induction of BCR-ABL degradation at 1 uM incubated for 24 hrs by western blot analysis relative to control; assay type: cell-based
Target sequence in this assay (P00519 whole entry, looked up, the tested form may be a part): as the sequence (P00519 whole entry, the tested form may be a part) above
Target sequence in this assay (P11274 whole entry, looked up, the tested form may be a part): as the sequence (P11274 whole entry, the tested form may be a part) above
Target sequence in this assay (Q96SW2 whole entry, looked up, the tested form may be a part): as the sequence (Q96SW2 whole entry, the tested form may be a part) above

T1 sequence (P00519 whole entry, the tested form may be a part): as the sequence (P00519 whole entry, the tested form may be a part) above
T1 sequence (P11274 whole entry, the tested form may be a part): as the sequence (P11274 whole entry, the tested form may be a part) above
T1 sequence (P40337 whole entry, the tested form may be a part): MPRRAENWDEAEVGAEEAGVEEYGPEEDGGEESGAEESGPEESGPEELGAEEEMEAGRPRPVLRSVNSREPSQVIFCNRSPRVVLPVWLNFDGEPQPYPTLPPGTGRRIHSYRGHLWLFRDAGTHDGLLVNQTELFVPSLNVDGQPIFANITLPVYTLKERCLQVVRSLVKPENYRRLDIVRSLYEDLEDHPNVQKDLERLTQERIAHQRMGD

| Kd [1] [nM] | Kd [2] [nM] | Kd [3] [nM] | Activity [4] [%] | Kd [5] [nM] | Activity [6] [%] | SMILES |
| --- | --- | --- | --- | --- | --- | --- |
| 0.47 | 0.92 |  |  |  |  | Cc1nc(Nc2ncc(C(=O)Nc3c(C)cccc3Cl)s2)cc(N2CCN(CCCCCCOCCOCCOCCCCCC(=O)N[C@H](C(=O)N3C[C@H](O)C[C@H]3C(=O)NCc3ccc(-c4scnc4C)cc3)C(C)(C)C)CC2)n1 |
|  |  | 0.91 | > 80 | 0.55 | > 60 | COc1cc(Nc2c(C#N)cnc3cc(OCCCN4CCN(CCCCCCOCCOCCOCCCCCC(=O)Nc5cccc6c5C(=O)N(C5CCC(=O)NC5=O)C6=O)CC4)c(OC)cc23)c(Cl)cc1Cl (stereo not drawn) |
| 0.3 | 0.57 |  |  |  |  | COc1cc(Nc2c(C#N)cnc3cc(OCCCN4CCN(CCCCCCOCCOCCOCCOCCOCCOCC(=O)N[C@H](C(=O)N5C[C@H](O)C[C@H]5C(=O)NCc5ccc(-c6scnc6C)cc5)C(C)(C)C)CC4)c(OC)cc23)c(Cl)cc1Cl |
| 0.67 | 1.3 |  |  |  |  | COc1cc(Nc2c(C#N)cnc3cc(OCCCN4CCN(CCCCCCOCCOCC(=O)N[C@H](C(=O)N5C[C@H](O)C[C@H]5C(=O)NCc5ccc(-c6scnc6C)cc5)C(C)(C)C)CC4)c(OC)cc23)c(Cl)cc1Cl |
|  |  | 0.26 | > 80 | 0.23 | > 60 | Cc1nc(Nc2ncc(C(=O)Nc3c(C)cccc3Cl)s2)cc(N2CCN(CCCCCCOCCOCCOCCOCCOCCOCC(=O)Nc3cccc4c3C(=O)N(C3CCC(=O)NC3=O)C4=O)CC2)n1 (stereo not drawn) |
|  |  | 0.38 | > 80 | 0.13 | > 60 | COc1cc(Nc2c(C#N)cnc3cc(OCCCN4CCN(CCCCCCOCCOCCOCCOCCOCCOCC(=O)Nc5cccc6c5C(=O)N(C5CCC(=O)NC5=O)C6=O)CC4)c(OC)cc23)c(Cl)cc1Cl (stereo not drawn) |
| 0.21 | 0.36 |  |  |  |  | Cc1nc(Nc2ncc(C(=O)Nc3c(C)cccc3Cl)s2)cc(N2CCN(CCCCCCOCCOCC(=O)N[C@H](C(=O)N3C[C@H](O)C[C@H]3C(=O)NCc3ccc(-c4scnc4C)cc3)C(C)(C)C)CC2)n1 |
|  |  |  | > 80 |  | > 60 | Cc1nc(Nc2ncc(C(=O)Nc3c(C)cccc3Cl)s2)cc(N2CCN(CCCCCCOCCOCCOCCCCCC(=O)Nc3cccc4c3C(=O)N(C3CCC(=O)NC3=O)C4=O)CC2)n1 (stereo not drawn) |
|  |  | 0.28 | > 80 | 0.11 | > 60 | COc1cc(Nc2c(C#N)cnc3cc(OCCCN4CCN(CCCCCCOCCOCC(=O)Nc5cccc6c5C(=O)N(C5CCC(=O)NC5=O)C6=O)CC4)c(OC)cc23)c(Cl)cc1Cl (stereo not drawn) |
| 0.088 | 0.28 |  |  |  |  | Cc1nc(Nc2ncc(C(=O)Nc3c(C)cccc3Cl)s2)cc(N2CCN(CCCCCCOCCOCCOCCOCCOCCOCC(=O)N[C@H](C(=O)N3C[C@H](O)C[C@H]3C(=O)NCc3ccc(-c4scnc4C)cc3)C(C)(C)C)CC2)n1 |
